Values quoted from earlier work as cited in US20070202050A1, “Pharmaceutical Formulations” (priority 2006, published 2007).

Experiments:
[1] = topically active steroid
[2] = test system: rhinoviruses
[3] = test system: symptoms associated with chronic nasal congestion
[4] = test system: secretions of natural tear components; conditions: preclinical testing

In the case of `C[C@@H]1C[C@H]2[C@@H]3CCC4=CC(=O)C=C[C@]4(C)[C@@]3(Cl)[C@@H](O)C[C@]2(C)[C@@]1(OC(=O)c1ccco1)C(=O)CCl` [Mometasone Furoate], the bioavailability [1] is given as “not readily bioavailable”.
In the case of `Cc1cc(CCCOc2c(C)cc(-c3noc(C(F)(F)F)n3)cc2C)on1` [Pleconaril, 1,2,4-oxadiazole3-[3,5-Dimethyl-4-[3-(3-methyl-5-isoxazolyl)propoxy]phenyl]-5-(trifluoremethyl)], the “solubility in water / aqueous solvents” value is listed as “insoluble”, the solubility in liquids (for example corn oil and ethanol) is listed as “soluble only in liquids of low polarity” and the activity against rhinoviruses [2] is listed as “active against rhinoviruses”.
In the case of `Oc1cccc(Nc2ncc(F)c(Nc3cccc(O)c3)n2)c1` [R112], the “absolute difference over placebo” value [3] is listed as 9%, the “improvement from baseline measurements (prior to drug initiation)” value [3] is listed as “up to 38%” and the “relative improvement over placebo” value [3] is listed as “greater than 20%”.
In the case of `O=c1ccn([C@@H]2O[C@H](COP(=O)(O)OP(=O)(O)OP(=O)(O)OP(=O)(O)OC[C@H]3O[C@@H](n4ccc(=O)[nH]c4=O)[C@H](O)[C@@H]3O)[C@@H](O)[C@H]2O)c(=O)[nH]1` [diquafosol], the “effect on secretions of natural tear components” value [4] is listed as “increased the secretions of natural tear components”.
